Results taken from US20180048011A1, “HIGH pH ORGANIC FLOW BATTERY” (President and Fellows of Harvard College, priority 2015, published 2018).
Where “and” joins values, the source holds several entries; their conditions need not be identical. Equal values may be shown once. Blank lines part the entries; values can stand above or below the molecule they belong to.

How the values were obtained:
Format in all cases: physicochemical
[1] = Three-electrode cyclic voltammetry of quinones in 1 M KOH (incl. Pourbaix diagram); details: for equilibrium cell potential vs. ferro/ferricyanide suggested by cyclic voltammograms: 1 M KOH, 100 mV/s, glassy carbon electrode; for equilibrium potential of couple with ferrocyanide compared with 2,6-DHAQ/ferrocyanide: CV at 100 mV/s on glassy carbon electrode
Method: FIG. 1. Pourbaix diagram of 2,6-DHAQ. […] FIGS. 2a-d. a. Cyclic voltammogram of 2 mM 2,6-DHAQ (left curve) and ferrocyanide (right curve) scanned at 100 mV/s; arrows indicate scan direction. Dotted line represents cyclic voltammogram of 1 M KOH background scanned at 100 mV/s. b and c. Cyclic voltammograms of 2,3,6,7-THAQ (left curve in b) and 1,5-DMAQ (left curve in c), respectively, plotted along ferrocyanide (right curve) scanned at 100 mV/s on glassy carbon electrode.
Electrochemical characterization. A glassy carbon electrode was used for three-electrode cyclic voltammetry tests, except in the electrochemical window tests where graphite foil was used to mimic the condition of porous carbon paper. Rotating-disk electrode (RDE) experiments of 2,6-DHAQ (1 mM) in 1 M KOH solution were performed using a BASi RDE-2 rotating-disk electrode system (FIG. 3a). All tests were carried out using a Gamry Reference 3000 potentiostat, with a Pt counter electrode and an Ag/AgCI reference electrode (equilibrated with 3M NaCI, 213 mV vs. standard hydrogen electrode. A Levich plot was constructed from the RDE data by plotting the mass-transport limited current vs. the square root of the rotation rate (FIG. 3b). The diffusion coefficient of 2,6-DHAQ was calculated for each of three runs from the slope of the line fit to the Levich equation (Bard, A. J. & Faulkner, L. R. Electrochemical Methods: Fundamentals and Applications. (Wiley, 2000)). The kinematic viscosity was taken to be 1.08×10^−6 m^2 s^-1 (Hitchcock, L. B. & Mcllhenny, J. S. Ind. Eng. Chem. 27, 461-466 (1935)). The resulting value of the diffusion coefficient is 4.8(2) x 10^-6 cm^2 s^-1.

[2] = Cyclic voltammetry of FMN and ferrocyanide; details: 2 mM, 100 mV/s, glassy carbon electrode
Method: FIG. 5. Cyclic voltammogram of 2 mM FMN (left curve) and ferrocyanide (right curve) scanned at 100 mV/s on glassy carbon electrode; arrows indicate scan direction.
Before and during the test, the electrolytes were purged with UHP nitrogen to remove and then keep out atmospheric oxygen. […] Galvanostatic cycling shown in […]

[3] = Solubility measurement by UV-Vis absorbance at 413 nm; details: 1 M KOH solution, pH 14, aqueous buffer, thermodynamic from solid; room temperature, in 1 M KOH
Method: Solubility measurement. Room temperature solubility in 1 M KOH solution was measured by measuring the absorbance at 413 nm and comparing to an absorbance-vs.-concentration calibration curve determined by preparing known concentrations of 2,6-DHAQ. UV-Vis spectrophotometry measurements were performed using an Agilent Cary 60 spectrophotometer equipped with a Quantum
Northwest T2 temperature regulator. Appropriate aliquots of 2,6-DHAQ stock solution were added to 1 M KOH blank solution and their UV-Vis absorbance spectra measured. A saturated solution of 2,6-DHAQ in 1 M KOH was prepared by adding 2,6-DHAQ potassium salt into 1 M KOH solution (10 mL) until a thin layer of precipitate formed, the remaining solution was diluted by known proportions, and the absorbance of the resulting solution was compared to the calibration curve.

[4] = Rotating-disk electrode study / Levich plot; details: 1 mM in 1 M KOH, Levich equation, three runs
Method: FIGS. 3a-3d. a. Rotating disk electrode study of the reduction of a 1 mM solution of 2,6-DHAQ in 1 M KOH on a glassy carbon electrode at various rotation rates (curves from top to bottom in legend). b. Levich plot of 1 mM 2,6-DHAQ in 1 M KOH. Data are an average of the current at -1.187 V vs. SHE for each of three runs; error bars indicate the standard deviation. c. Cyclic voltammogram of 1 mM 2,6-DHAQ in 1 M KOH (solid line). Dashed lines represent simulated cyclic voltammograms of a two-electron reduction of varying electrochemical rate constant ko and a reduction potential Eo of -0.684 V vs. SHE. The simulations assumed a ═0.5. The scan rate in all cases was 25 mV s^-1. d. […]
Electrochemical characterization. […] All tests were carried out using a Gamry Reference 3000 potentiostat, with a Pt counter electrode and an Ag/AgCI reference electrode (equilibrated with 3M NaCI, 213 mV vs. standard hydrogen electrode. A Levich plot was constructed from the RDE data by plotting the mass-transport limited current vs. the square root of the rotation rate (FIG. 3b). The diffusion coefficient of 2,6-DHAQ was calculated for each of three runs from the slope of the line fit to the Levich equation (Bard, A. J. & Faulkner, L. R. Electrochemical Methods: Fundamentals and Applications. (Wiley, 2000)). The kinematic viscosity was taken to be 1.08×10^−6 m^2 s^-1 (Hitchcock, L. B. & Mcllhenny, J. S. Ind. […]

[5] = Cyclic voltammogram modeling (simulated fit to measured CV)
Method: FIGS. 3a-3d. a. Rotating disk electrode study of the reduction of a 1 mM solution of 2,6-DHAQ in 1 M KOH on a glassy carbon electrode at various rotation rates (curves from top to bottom in legend). b. Levich plot of 1 mM 2,6-DHAQ in 1 M KOH. Data are an average of the current at -1.187 V vs. SHE for each of three runs; error bars indicate the standard deviation. c. Cyclic voltammogram of 1 mM 2,6-DHAQ in 1 M KOH (solid line). Dashed lines represent simulated cyclic voltammograms of a two-electron reduction of varying electrochemical rate constant ko and a reduction potential Eo of -0.684 V vs. SHE. The simulations assumed a ═0.5. The scan rate in all cases was 25 mV s^-1. d. Cyclic voltammogram of 1 mM 2,6-DHAQ in 1 M KOH (solid line). Dashed lines represent the simulated components of two successive one-electron reductions with reduction potentials of -0.657 V vs. SHE and -0.717 V vs. SHE, respectively, as well as the simulated total current arising from such a reaction. Each simulated reduction has a rate constant ko ═7 x 10^-3 cm 5^-1. The simulations assumed a ═0.5.
Cyclic voltammogram modeling. Computation was performed using Mathematica 10.0.1.0 according to algorithms by Oldham and Myland (Oldham, K. B. & Myland, J. C. Electrochim. Acta 56, 10612-10625 (2011)). The diffusivity of 2,6-DHAQ and both the one-electron and two-electron reduction products were assumed to be 4.8 x 10^-6 cm^2 s^-1, based on our RDE studies. The temperature was 293 K. Time was discretized into 40 ms increments, and the current at each time was computed based on the sum of previous currents as described by Oldham (Oldham, K. B. & Myland, J. C. Electrochim. Acta 56, 10612-10625 (2011)).
To model the two-electron reduction process (FIG. 1), the Butler-Volmer equation with the number of electrons n ═2 was used in place of Oldham equation (4:5), and the right-hand-side of equation (8:3) was multiplied by 2 to account for a two-electron reduction (Bard, A. J. & Faulkner, L. R. Electrochemical Methods: Fundamentals and Applications. (Wiley, 2000); Oldham, K. B. & Myland, J. C. Electrochim. Acta 56, 10612-10625 (2011)). The reduction potential was assumed to be equal to the voltage equidistant from the two peaks on the measured cyclic voltammogram (-0.684 V vs. SHE) and the charge transfer coefficient a was assumed to be 0.5. The electrochemical rate constant ko was then varied from 10^-3 cm s^-1 to 10^-5 cm s^-1.
To model the two successive one-electron reductions (FIG. 3d), Oldham equations (12:13) and (12:14) were used (Oldham, K. B. & Myland, J. C. Electrochim. Acta 56, 10612-10625 (2011)). The charge transfer coefficients al and a2 were assumed to be equal to 0.5, and the electrochemical rate constants for the two reductions were assumed equal. The values of the single rate constant and the first and second reduction potentials were permitted to vary freely. A reasonable fit to the experimental data was observed when the reduction potential of the first reduction Ei ═-0.657 V vs. SHE, the reduction potential of the second reduction E2 ═-0.717 V vs. SHE, and the two electrochemical rate constants ko,i and ko,2 both equaled 7×10^−3 cm s^-1, a value very close to that observed in other anthraquinone systems (Huskinson, B. et al. Nature 505, 195-198 (2014)).

[6] = Crossover study: CV of ferro-ferricyanide posolyte after 100 charge-discharge cycles; details: for fraction of 2,6-DHAQ crossed over the membrane into the posolyte: Nafion membrane
Method: FIGS. 16a-16b. Test of electrolyte permeation through membrane. Full (a) and zoomed in (b) cyclic voltammograms of 0.4 M ferro-ferricyanide electrolyte after 100 charge-discharge cycles. Same posolyte to which was added 3.9 mM 2,6-DHAQ, and 7.6 mM 2,6-DHAQ.
Crossover study. The concentration of crossed-over 2,6-DHAQ into the ferro-ferricyanide posolyte solution was evaluated using CV. After 100 charge-discharge cycles, the ferro-ferricyanide posolyte solution (5 mL) was collected and analyzed by CV (scan at 100 mV/s. The correlation between the CV signal and 2,6-DHAQ concentration was established by titrating known amounts of 2,6-DHAQ (12 mg or […]) to the cycled posolyte followed by controlled dilution. The comparison indicates <10 mM 2,6-DHAQ had crossed over into the posolyte, which corresponds to <2% of the 2,6-DHAQ originally assembled into the negolyte.

[7] = Chemical and electrochemical stability by proton NMR; details: sensitivity level of 1%; after 30 days in 5 M KOH at 100° C. and after 100 charge-discharge cycles (FIGS. 15a-c)
Method: FIGS. 15a-15c. Chemical and electrochemical stability of 2,6-DHAQ. ^1H NMR (500 MHz, DMSO-d6) spectra. a. 2,6-DHAQ 6: 8.04 (d, 2H, J═8.3 Hz, 2 x ArCH), 7.47 (d, 2H, J═2.5 Hz, 2 x ArCH), 7.19 (dd, 2H, J═8.3, 2.5 Hz, 2 x ArCH). b. 2,6-DHAQ, after 30 days heating in 5 M KOH solution at 100° C. c. 2,6-DHAQ, after 100 charge-discharge cycles.
The cell was cycled at a constant current density of ±0.1 A cm^-2 for 100 cycles (FIG. 14a). […] A 0.1% loss in capacity per cycle was observed during cycling, which appears to be a continuous loss of electro-active species over the 100 cycles (FIG. 14b). We explored three possible loss mechanisms: chemical decomposition, electrolyte crossover through the membrane, and leakage from the pumping system. […] This observation places an upper limit on crossover of 0.8% of the DHAQ, implying a crossover current density of <2.5 μA cm^-2 (FIGS. 16a and 16b). […] A source of leakage was readily apparent but not quantifiable at the exit of the humidified nitrogen bubbling through the negolyte to prevent energy loss by permeation of atmospheric oxygen. Coloration could also be found on the gaskets, indicating a likely site of electrolyte leakage (FIGS. 17a and 17b).

[8] = 1 mM in 1 M KOH, simulated fit, two successive one-electron reductions
[9] = after 100 charge-discharge cycles

- equilibrium cell potential vs. ferro/ferricyanide suggested by cyclic voltammograms [1]: ~1.35 V
SMILES: O=C1c2cc(O)c(O)cc2C(=O)c2cc(O)c(O)cc21 [2,3,6,7-THAQ, 2,3,6,7-tetrahydroxy-9,10-anthraquinone]
- equilibrium potential of couple with ferrocyanide compared with 2,6-DHAQ/ferrocyanide [1]: higher equilibrium potential than 2,6-DHAQ/ferrocyanide

- equilibrium cell potential vs. ferro/ferricyanide suggested by cyclic voltammograms [1]: ~1.35 V
SMILES: Cc1c(O)ccc2c1C(=O)c1ccc(O)c(C)c1C2=O [1,5-DMAQ, 1,5-dimethyl-2,6-dihydroxy-9,10-anthraquinone]
- equilibrium potential of couple with ferrocyanide compared with 2,6-DHAQ/ferrocyanide [1]: higher equilibrium potential than 2,6-DHAQ/ferrocyanide

- overall peak separation of cyclic voltammograms vs. ferrocyanide [2]: 1 V
SMILES: Cc1cc2nc3c(=O)[nH]c(=O)nc-3n(C[C@@H](O)[C@@H](O)[C@@H](O)COP(=O)(O)O)c2cc1C [FMN, riboflavin 5′ phosphate]

- solubility [3]: > 600 mM
- equilibrium cell potential vs. ferro/ferricyanide suggested by cyclic voltammograms [1]: 1.2 V
- diffusion coefficient [4]: 4.8(2) x 10^-6 cm^2 s^-1
- reduction potential E0 (voltage equidistant from the two CV peaks) ([5]; 1 mM in 1 M KOH, two-electron reduction model): -0.684 V vs. SHE
- reduction potential of the first one-electron reduction [5, 8]: -0.657 V vs. SHE
- reduction potential of the second one-electron reduction [5, 8]: -0.717 V vs. SHE
- separation of the potentials of the two one-electron reductions ([5]; pH 14): 0.06 V
- concentration of 2,6-DHAQ crossed over into the posolyte [6, 9]: < 10000 µM
- fraction of 2,6-DHAQ crossed over the membrane into the posolyte [6, 9]: < 1% and < 2%
- fraction of 2,6-DHAQ crossed over the membrane into the posolyte ([6]; after 100 charge-discharge cycles, listed as DHAQ): ≤ 0.8%
- crossover current density ([6]; implied by crossover upper limit): < 2.5 μA cm^-2
- decomposition by proton NMR [7]: no decomposition product
SMILES: O=C1c2ccc(O)cc2C(=O)c2ccc(O)cc21 [2,6-DHAQ, 2,6-dihydroxy-9,10-anthraquinone]
- rate constant ko of each simulated reduction ([5]; FIG. 3d legend, simulated fit): 7 x 10^-3 cm 5^-1
- electrochemical rate constant k0 (both reductions) ([5]; simulated fit, charge transfer coefficient 0.5): 0.007 cm/s
